“Also recorded” adds a separate entry of the source.
Assays:
[1] = test system: K-Ras^G12V-induced lung tumors; details: p53-deficient background; cited from earlier work
h543 GSCs xenografts = experiment: Subcutaneous xenograft of patient-derived h543 GSCs in nude mice; type: in vivo; details: oral 75 mg/kg 5 days/week, vs vehicle
Procedure: (§1) h676 and h543 patient-derived GSCs were dissociated using a 200 μl pipet and resuspended in NeuroCult medium and matrigel in a 1:1 ratio in a concentration of 1000 cell/μl. Nude mice (athymic Nude-Foxn1^nu/nu from Harlan) were injected subcutaneously with 100 μl of the cell preparation. ETP-47037 (or vehicle) was orally administrated at a concentration of 75 mg/kg 5 days per week (see also section 8), starting one week after cell injection. The vehicle consisted in 10% N-methyl-2-pyrrolidone (NMP, Sigma Aldrich) and 90% poly ethylene glycol (PEG, Sigma Aldrich). Mice were weighted and tumors were measured every 2-4 days. Tumor area was determined by the following equation: A=π*(a/2)*(b/2), were a and b are tumor length and width respectively.
(§2) For oral administration, ETP-47037 was dissolved in 10% N-methyl-2-pyrrolidone (NMP, Sigma Aldrich) and 90% polyethylene glycol (PEG, Sigma Aldrich) at a concentration of 75 mg/kg.
(§3) Next, the present inventors set to address whether TRF1 chemical inhibition was able to block tumor growth in vivo. […] Thus, the two independent primary GSCs (h676 and h543) were injected subcutaneously into nude mice. […]

h676 GSCs = experiment: Sphere formation assay in patient-derived h676 GSCs; type: cell-based, human; details: vs untreated controls
Procedure: (§4) FIG. 48. […] (A) Dose-response curves of the h676 GSCs treated 7 days with the indicated compounds. (B) Dose-response curves of the h543 GSCs treated 7 days with the indicated compounds. Data are represented as mean±SD.
(§5) Spheres were dissociated into single cells and seeded at a density of 50, 100, 200 and 400 cells/well in a 96 well plate. Neurosphere number was assessed after 7 days. Pictures were taken using Nikon Eclipse Ti-U microscope and neurosphere diameter was measured using NIS Elements BR software.
(§6) Given the promising results the present inventors obtained with the TRF1 chemical modulators in the U251 GBM cell line, the present inventors next set to address the effects of these compounds in two independent patient-derived primary GSCs (h543 and h676) cultures.
(§7) Next, the present inventors set to address whether the different compounds were able to block sphere formation in the h676 and h543 GSCs.

[2] = Crossing of the brain blood barrier
TRF1 [3] = experiment: Western blot of total TRF1 protein in U251 cells; type: cell-based, human; details: 10 μM, 24 h or 48 hr
Procedure: Nuclear protein extracts were obtained using Nuclear Cytosolic Fractionation Kit (Biovision) and protein concentration was determined using the Bio-Rad DC Protein Assay (Bio-Rad). Up to 15 μg of protein per extract were separated in SDS-polyacrylamide gels by electrophoresis. After protein transfer onto nitrocellulose membrane (Whatman), the membranes were incubated with the indicated antibodies. Antibody binding was detected after incubation with a secondary antibody coupled to horseradish peroxidase using chemiluminescence with ECL detection KIT (GE Healthcare)
Quantifications: Protein-band intensities were measured with ImageJ software and normalized against the loading control.
(§8) For in vitro studies, ETP-47228 ETP-47037 and ETP-50946 were dissolved in DMSO at a final concentration of 10 or 5 mM. Cells were treated at a concentration of 10 μM for 24 h or 48 hr.
(§9) To address whether these small molecules could represent a new therapeutic strategy for the treatment of GBM, the present inventors first tested the ability of the three independent TRF1 inhibitory molecules (ETP-47228, ETP-47037 and ETP-50946) to downregulate TRF1 protein levels in the U251 human GBM cell line.

TRF1 [4] = experiment: TRF1 nuclear immunofluorescence (TRF1 foci) in U251 cells; type: cell-based, human; details: 10 μM, 24 h or 48 hr
Procedure: For immunofluorescence analyses, cells were plated in a proper density in cell culture μCLEAR plates (Greiner) and fixed in 4% formaldehyde in PBS. Cells were permeabilized with 0.25% Triton in PBS and blocked with 5% BSA in PBS. Tissue sections were fixed in 10% buffered formalin (Sigma) and embedded in paraffin. After deparaffinization and citrate antigen retrieval, sections were permeabilized with 0.5% Triton in PBS and blocked with 1% BSA and 10% Australian FBS ([…]) in PBS. The antibodies were applied overnight in antibody diluents with background reducing agents (Invitrogen).
Immunofluorescence images were obtained using a confocal ultraspectral microscope (Leica TCS-SP5) or the Opera High Content Screening (HCS) system (Perkin Elmer). Quantifications were performed with Definiens software.
as §8, §9

[5] = Sickness, morbidity and pathologies of xenograft mice after long-term treatment; type: in vivo
Procedure: as §1
Histopathological analysis was performed in paraffin embedded tissue sections stained with hematoxylin and eosin (H&E), with the assistance of the CNIO Histopathology Unit and Juana María Flores from the Universidad Complutense de Madrid (UCM).
as §3

h543 GSCs = experiment: Sphere formation assay in patient-derived h543 GSCs; type: cell-based, human; details: vs untreated controls
Procedure: as §4, §5, §6, §7

h676 GSCs xenografts = experiment: Subcutaneous xenograft of patient-derived h676 GSCs in nude mice; type: in vivo
Procedure: as §1, §2
Next, the present inventors set to address whether TRF1 chemical inhibition was able to block tumor growth in vivo. […] Thus, the two independent primary GSCs (h676 and h543) were injected subcutaneously into nude mice. One week after GSC injection, mice received oral administration of the vehicle (NMP 10%, PEG 90%) as placebo or the ETP-47037 TRF1 inhibitor 5 days/week, every week until human endpoint, and tumors were continuously followed-up by caliper measurements (FIG. 42A).

U251 cells = experiment: Neurosphere formation assay in U251 cells; type: cell-based, human; details: U251 in NSC media; seven days; vs DMSO
Procedure: as §5
Finally, the present inventors checked if the three chemical compounds had the ability to reduce sternness in these cells. They cultured U251 cells with NSC media in order to obtain a suspension culture enriched in stem cells. The inventors performed a sphere formation assay with these cells treated with ETP-47228, ETP-47037 and ETP-50946 or DMSO for seven days. […] Of note, all these effects recapitulated what the present inventors observed with Trf1 genetic downregulation (See 2.2).

[6] = GSC-derived xenografts, vs vehicle

CS(=O)(=O)N1CCN(Cc2cc3c(N4CCOCC4)nc(-c4cnc(N)nc4)cn3n2)CC1 [ETP-47037]
growth of already established lung adenocarcinomas [1]: effectively impair the growth
tumor areas (caliper follow-up) (h543 GSCs xenografts): drastic reduction
diameter of spheres (h676 GSCs): significant drastic reduction
number of spheres (h676 GSCs): significant drastic reduction
crossing the brain blood barrier [2]: not crossing the brain blood barrier
total TRF1 protein levels (western blot) (TRF1 [3]): effectively reduced
TRF1 foci (immunofluorescence) (TRF1 [4]): effectively reduced
Mice pathologies after long-term treatment ([5]; one line per mouse (Mice 1-4)): Mice 3: dermatitis; also recorded: Mice 4: dermatitis; also recorded: Mice 2: dermatitis
signs of sickness or morbidity ([5]; treated cohorts compared to the placebo group): did not detect any signs of sickness or morbidity
diameter of spheres (h543 GSCs): significant drastic reduction
number of spheres (h543 GSCs): significant drastic reduction
proliferation marker Ki67-positive cells in tumors (h676 GSCs xenografts; [6]): reduces proliferation
γH2AX DNA damage marker positive cells in tumors (h676 GSCs xenografts; [6]): induces DNA damage
tumor areas (caliper follow-up) (h676 GSCs xenografts; h676 xenograft, oral 75 mg/kg 5 days/week, vs vehicle): drastic reduction
decrease of TRF1 protein levels in tumors (immunofluorescence) (h676 GSCs xenografts; h676 xenograft, vs placebo): 80%
tumor size post-mortem (h676 GSCs xenografts; h676 xenograft, vs placebo): striking decrease
tumor weight post-mortem (h676 GSCs xenografts; h676 xenograft, vs placebo): striking decrease
histological analysis of the tumors (h676 GSCs xenografts; xenografts after treatment): decreased cellularity in the tumors, together with necrotic areas, apoptotic bodies, compacted chromatin and fragmented DNA
diameter of neurospheres (U251 cells): strong reduction
number of neurospheres (U251 cells): strong reduction

— US20220054496A1, “MODULATION OF TRF1 FOR BRAIN CANCER TREATMENT” (Fundación Del Sector Público Estatal Centro Nacional De …, priority 2018, published 2022)
